Measured values taken from ChEMBL document CHEMBL1154708, “Identification of a brain penetrant PDE9A inhibitor utilizing prospective design and chemical enablement as a rapid lead optimization strategy” (J Med Chem, 2009).

Columns and labels:
[1] = biological target: T1, High affinity cGMP-specific 3',5'-cyclic phosphodiesterase 9A (Homo sapiens, UniProt O76083); test: Binding affinity to PDE9A
[2] = biological target: T1, High affinity cGMP-specific 3',5'-cyclic phosphodiesterase 9A; test: Inhibition of human recombinant PDE9A expressed in Sf9 cells by SPA
[3] = biological target: Dual specificity calcium/calmodulin-dependent 3',5'-cyclic nucleotide phosphodiesterase 1C (Homo sapiens, UniProt Q14123); test: Inhibition of human recombinant PDE1C expressed in Sf9 cells by SPA
[4] = Inhibition of PDE2
[5] = biological target: cGMP-inhibited 3',5'-cyclic phosphodiesterase 3A (Homo sapiens, UniProt Q14432); test: Inhibition of PDE3A
[6] = biological target: 3',5'-cyclic-AMP phosphodiesterase 4C (Homo sapiens, UniProt Q08493); test: Inhibition of PDE4C
[7] = biological target: cGMP-specific 3',5'-cyclic phosphodiesterase (Homo sapiens, UniProt O76074); test: Inhibition of PDE5
[8] = Inhibition of PDE6
[9] = biological target: 3',5'-cyclic-AMP phosphodiesterase 7B (Homo sapiens, UniProt Q9NP56); test: Inhibition of PDE7B
[10] = biological target: High affinity cAMP-specific and IBMX-insensitive 3',5'-cyclic phosphodiesterase 8B (Homo sapiens, UniProt O95263); test: Inhibition of PDE8B
[11] = biological target: cAMP and cAMP-inhibited cGMP 3',5'-cyclic phosphodiesterase 10A (Homo sapiens, UniProt Q9Y233); test: Inhibition of PDE10
[12] = biological target: Dual 3',5'-cyclic-AMP and -GMP phosphodiesterase 11A (Homo sapiens, UniProt Q9HCR9); test: Inhibition of PDE11
[13] = Ratio of drug level in brain to plasma of rat; type: ADME, cell-free; conditions: brain and plasma
Mus musculus [14] = test: Increase in cGMP level in sc dosed CD1 mouse striatum after 30 mins; type: functional, organism-based
Mus musculus [15] = test: Increase in cGMP level in CD1 mouse striatum at 3.2 mg/kg, sc after 30 mins; type: functional; conditions: route subcutaneous
Mus musculus [16] = test: Increase in […] level in CD1 mouse striatum at 10 mg/kg, sc after 30 mins; type: functional; conditions: route subcutaneous
Mus musculus [17] = test: Increase in […] level in CD1 mouse striatum at 0.32 mg/kg, sc after 30 mins; type: functional; conditions: route subcutaneous
Mus musculus [18] = test: Increase in […] level in CD1 mouse striatum at 1 mg/kg, sc after 30 mins; type: functional; conditions: route subcutaneous

T1 sequence (O76083 whole entry): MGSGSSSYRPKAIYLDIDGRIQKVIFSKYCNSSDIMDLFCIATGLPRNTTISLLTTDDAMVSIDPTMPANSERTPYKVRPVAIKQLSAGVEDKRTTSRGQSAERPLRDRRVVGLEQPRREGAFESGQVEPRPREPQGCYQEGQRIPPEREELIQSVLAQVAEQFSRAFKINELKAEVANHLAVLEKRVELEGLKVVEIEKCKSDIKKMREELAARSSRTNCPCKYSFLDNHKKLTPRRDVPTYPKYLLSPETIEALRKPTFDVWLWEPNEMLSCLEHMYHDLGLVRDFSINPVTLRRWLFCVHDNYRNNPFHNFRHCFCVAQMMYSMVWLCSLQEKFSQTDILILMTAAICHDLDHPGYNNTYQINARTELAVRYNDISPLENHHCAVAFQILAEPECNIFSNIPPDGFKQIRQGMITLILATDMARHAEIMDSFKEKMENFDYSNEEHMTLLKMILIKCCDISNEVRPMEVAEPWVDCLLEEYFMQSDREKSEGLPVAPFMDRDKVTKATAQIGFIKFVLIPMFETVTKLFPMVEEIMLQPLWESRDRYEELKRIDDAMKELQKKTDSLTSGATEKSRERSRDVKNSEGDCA
Sequence of Dual specificity calcium/calmodulin-dependent 3',5'-cyclic nucleotide phosphodiesterase 1C (Q14123 whole entry): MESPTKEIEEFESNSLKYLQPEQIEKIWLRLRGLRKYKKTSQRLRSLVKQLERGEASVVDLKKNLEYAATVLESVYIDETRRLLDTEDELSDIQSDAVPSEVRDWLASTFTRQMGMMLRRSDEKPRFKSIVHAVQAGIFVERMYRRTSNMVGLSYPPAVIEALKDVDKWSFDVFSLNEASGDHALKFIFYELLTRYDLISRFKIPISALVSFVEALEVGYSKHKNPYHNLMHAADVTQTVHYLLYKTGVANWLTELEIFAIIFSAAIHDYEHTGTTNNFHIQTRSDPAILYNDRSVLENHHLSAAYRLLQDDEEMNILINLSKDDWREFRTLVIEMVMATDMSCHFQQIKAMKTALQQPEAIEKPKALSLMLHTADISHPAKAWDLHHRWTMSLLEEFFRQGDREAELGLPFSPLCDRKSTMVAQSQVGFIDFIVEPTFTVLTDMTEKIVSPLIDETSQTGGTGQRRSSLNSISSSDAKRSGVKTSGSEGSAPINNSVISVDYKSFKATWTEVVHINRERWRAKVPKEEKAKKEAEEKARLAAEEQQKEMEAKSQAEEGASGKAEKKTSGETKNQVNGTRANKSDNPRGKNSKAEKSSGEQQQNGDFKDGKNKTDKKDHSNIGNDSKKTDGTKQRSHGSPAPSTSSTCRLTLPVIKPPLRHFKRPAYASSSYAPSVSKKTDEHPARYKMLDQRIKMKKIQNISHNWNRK
Sequence of cGMP-inhibited 3',5'-cyclic phosphodiesterase 3A (Q14432 whole entry): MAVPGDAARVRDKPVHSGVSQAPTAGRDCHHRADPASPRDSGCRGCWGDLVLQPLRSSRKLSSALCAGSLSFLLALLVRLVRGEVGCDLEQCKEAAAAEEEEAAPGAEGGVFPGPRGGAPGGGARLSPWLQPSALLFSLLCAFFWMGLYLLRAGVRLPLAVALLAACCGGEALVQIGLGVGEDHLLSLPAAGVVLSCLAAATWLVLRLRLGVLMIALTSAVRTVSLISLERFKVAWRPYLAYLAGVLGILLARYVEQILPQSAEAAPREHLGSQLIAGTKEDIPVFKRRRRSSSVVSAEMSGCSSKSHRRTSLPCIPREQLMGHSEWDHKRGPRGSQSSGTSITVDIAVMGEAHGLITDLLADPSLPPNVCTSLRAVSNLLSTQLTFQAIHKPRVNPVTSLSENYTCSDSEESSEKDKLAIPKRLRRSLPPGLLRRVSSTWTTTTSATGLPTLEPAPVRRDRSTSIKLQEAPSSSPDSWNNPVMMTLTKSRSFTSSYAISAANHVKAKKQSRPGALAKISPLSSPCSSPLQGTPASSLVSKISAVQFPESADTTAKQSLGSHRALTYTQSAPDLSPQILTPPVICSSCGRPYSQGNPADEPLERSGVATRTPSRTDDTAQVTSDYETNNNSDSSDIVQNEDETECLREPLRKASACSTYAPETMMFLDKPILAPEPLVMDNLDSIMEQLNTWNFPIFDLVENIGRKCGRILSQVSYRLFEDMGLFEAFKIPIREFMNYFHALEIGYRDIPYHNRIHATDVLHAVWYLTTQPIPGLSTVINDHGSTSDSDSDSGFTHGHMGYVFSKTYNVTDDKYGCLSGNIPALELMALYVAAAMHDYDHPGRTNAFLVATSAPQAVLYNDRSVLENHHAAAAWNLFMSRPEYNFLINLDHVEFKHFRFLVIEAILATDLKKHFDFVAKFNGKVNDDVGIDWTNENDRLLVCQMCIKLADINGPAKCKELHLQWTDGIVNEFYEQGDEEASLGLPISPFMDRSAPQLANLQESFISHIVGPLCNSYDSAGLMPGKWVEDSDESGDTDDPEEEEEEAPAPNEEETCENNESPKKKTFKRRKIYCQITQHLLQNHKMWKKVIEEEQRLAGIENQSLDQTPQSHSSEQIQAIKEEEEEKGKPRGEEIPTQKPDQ
Sequence of 3',5'-cyclic-AMP phosphodiesterase 4C (Q08493 whole entry): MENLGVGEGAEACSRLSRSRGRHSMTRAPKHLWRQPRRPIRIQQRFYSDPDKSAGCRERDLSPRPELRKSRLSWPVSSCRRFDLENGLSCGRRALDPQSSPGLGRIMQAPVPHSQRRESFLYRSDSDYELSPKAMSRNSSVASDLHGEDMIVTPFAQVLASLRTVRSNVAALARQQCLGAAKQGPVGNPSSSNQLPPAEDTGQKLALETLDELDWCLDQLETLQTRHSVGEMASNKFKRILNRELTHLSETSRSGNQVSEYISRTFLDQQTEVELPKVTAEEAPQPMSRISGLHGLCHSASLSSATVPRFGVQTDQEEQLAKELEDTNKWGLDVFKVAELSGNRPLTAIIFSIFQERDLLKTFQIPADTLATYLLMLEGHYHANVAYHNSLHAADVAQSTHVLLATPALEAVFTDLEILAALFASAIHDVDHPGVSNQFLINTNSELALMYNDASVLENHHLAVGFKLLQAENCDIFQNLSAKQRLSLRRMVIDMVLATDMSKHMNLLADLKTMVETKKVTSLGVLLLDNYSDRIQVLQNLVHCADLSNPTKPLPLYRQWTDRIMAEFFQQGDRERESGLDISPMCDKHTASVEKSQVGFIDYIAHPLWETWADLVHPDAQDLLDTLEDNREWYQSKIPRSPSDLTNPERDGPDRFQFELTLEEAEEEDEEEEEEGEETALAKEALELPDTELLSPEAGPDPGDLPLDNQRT
Sequence of cAMP and cAMP-inhibited cGMP 3',5'-cyclic phosphodiesterase 10A (Q9Y233 whole entry): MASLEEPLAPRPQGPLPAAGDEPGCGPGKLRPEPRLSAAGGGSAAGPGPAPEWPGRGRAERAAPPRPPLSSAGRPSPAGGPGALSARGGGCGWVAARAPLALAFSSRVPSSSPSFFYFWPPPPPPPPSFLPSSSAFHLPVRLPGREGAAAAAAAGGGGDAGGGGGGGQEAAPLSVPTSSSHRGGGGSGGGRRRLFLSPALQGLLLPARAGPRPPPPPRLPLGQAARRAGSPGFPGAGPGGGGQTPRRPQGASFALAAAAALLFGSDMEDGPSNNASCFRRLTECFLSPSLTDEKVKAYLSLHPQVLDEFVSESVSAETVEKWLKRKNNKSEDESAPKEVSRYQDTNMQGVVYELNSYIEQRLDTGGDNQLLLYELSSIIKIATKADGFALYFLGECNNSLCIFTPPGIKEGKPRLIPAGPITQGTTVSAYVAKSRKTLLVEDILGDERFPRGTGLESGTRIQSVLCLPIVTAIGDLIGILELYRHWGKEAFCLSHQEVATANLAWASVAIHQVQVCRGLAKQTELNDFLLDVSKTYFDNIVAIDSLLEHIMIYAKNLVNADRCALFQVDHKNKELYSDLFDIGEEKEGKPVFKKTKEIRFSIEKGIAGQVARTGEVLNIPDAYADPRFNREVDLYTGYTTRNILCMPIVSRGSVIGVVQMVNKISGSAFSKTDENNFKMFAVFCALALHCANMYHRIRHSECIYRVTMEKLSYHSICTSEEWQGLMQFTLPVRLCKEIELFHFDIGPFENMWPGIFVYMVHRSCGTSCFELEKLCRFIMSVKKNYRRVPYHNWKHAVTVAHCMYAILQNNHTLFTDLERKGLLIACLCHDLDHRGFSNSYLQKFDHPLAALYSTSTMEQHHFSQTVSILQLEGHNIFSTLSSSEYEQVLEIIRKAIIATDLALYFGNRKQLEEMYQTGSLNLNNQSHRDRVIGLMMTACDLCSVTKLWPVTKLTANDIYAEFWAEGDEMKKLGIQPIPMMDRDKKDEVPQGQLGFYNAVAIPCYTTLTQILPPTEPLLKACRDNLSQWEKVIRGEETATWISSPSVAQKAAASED
Sequence of High affinity cAMP-specific and IBMX-insensitive 3',5'-cyclic phosphodiesterase 8B (O95263 whole entry): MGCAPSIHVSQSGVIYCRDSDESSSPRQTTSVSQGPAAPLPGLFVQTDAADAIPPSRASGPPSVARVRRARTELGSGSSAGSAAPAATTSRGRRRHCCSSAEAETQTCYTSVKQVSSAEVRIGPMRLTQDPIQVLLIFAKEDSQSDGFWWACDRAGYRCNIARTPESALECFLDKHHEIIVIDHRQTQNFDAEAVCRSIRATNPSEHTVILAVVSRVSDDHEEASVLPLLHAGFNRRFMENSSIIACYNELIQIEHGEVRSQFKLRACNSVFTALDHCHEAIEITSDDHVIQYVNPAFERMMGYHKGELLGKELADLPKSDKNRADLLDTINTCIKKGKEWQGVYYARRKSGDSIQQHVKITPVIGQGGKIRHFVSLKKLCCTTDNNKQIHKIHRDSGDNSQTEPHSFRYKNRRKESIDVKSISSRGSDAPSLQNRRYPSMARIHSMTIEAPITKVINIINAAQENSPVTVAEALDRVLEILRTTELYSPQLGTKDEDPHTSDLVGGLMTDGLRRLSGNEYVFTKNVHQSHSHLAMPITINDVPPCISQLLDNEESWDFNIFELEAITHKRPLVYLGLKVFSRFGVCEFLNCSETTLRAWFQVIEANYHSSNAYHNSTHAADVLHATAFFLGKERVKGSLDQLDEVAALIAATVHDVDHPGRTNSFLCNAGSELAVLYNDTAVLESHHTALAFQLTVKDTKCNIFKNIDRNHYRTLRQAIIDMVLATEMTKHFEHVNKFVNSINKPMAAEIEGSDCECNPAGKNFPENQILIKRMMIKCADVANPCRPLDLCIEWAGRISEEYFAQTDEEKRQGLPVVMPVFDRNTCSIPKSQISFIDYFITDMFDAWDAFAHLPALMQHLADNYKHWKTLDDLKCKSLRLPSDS

Row | Compound | IC50 ([2]; read-out: IC50) | IC50 [3] | further results
1 | Cn1cc(-c2ccncc2)c(-c2ccc(OCc3ccc4ccccc4n3)cc2)n1 |  |  | Activity [1]: 2.1 nM
2 | C[C@@H]1CN(Cc2ccc3nccnc3c2)C[C@H]1c1nc2c(cnn2C2CCCC2)c(=O)[nH]1 | 1.8 nM | 50 nM | IC50 [4]: > 1000 nM; IC50 [5]: > 1000 nM; IC50 [6]: > 1000 nM; IC50 [7]: 349 nM; IC50 [8]: 127 nM; IC50 [9]: > 1000 nM; IC50 [10]: > 1000 nM; IC50 [11]: > 1000 nM; IC50 [12]: > 1000 nM; Kp [13]: 1.4; Activity (Mus musculus [14]): Dose-dependent effect; Activity (Mus musculus [15]): 145%; Activity (Mus musculus [16]): 215%; Activity (Mus musculus [17]): 110%; Activity (Mus musculus [18]): 119%
3 | C[C@@H]1CN(Cc2ccc(C(F)(F)F)nc2)C[C@H]1c1nc2c(cnn2C2CCCC2)c(=O)[nH]1 | 16 nM | 190 nM | 
4 | CC(C)Cn1ncc2c(=O)[nH]c([C@@H]3CN(Cc4ccccc4)C[C@H]3C)nc21 (relative stereo) | 150 nM | 1500 nM | 
5 | C[C@@H]1CN(Cc2ccccc2)C[C@H]1c1nc2c(cnn2C2CCCC2)c(=O)[nH]1 (relative stereo) | 63 nM | 970 nM | 
6 | Cc1ncc(CN2C[C@@H](C)[C@H](c3nc4c(cnn4C4CCCC4)c(=O)[nH]3)C2)cn1 (relative stereo) | 11 nM | 400 nM | 
7 | C[C@@H]1CN(Cc2ccccn2)C[C@H]1c1nc2c(cnn2C2CCCC2)c(=O)[nH]1 (relative stereo) | 200 nM | 1300 nM | 
8 | Cc1cc(CN2C[C@@H](C)[C@H](c3nc4c(cnn4C4CCCC4)c(=O)[nH]3)C2)no1 (relative stereo) | 11 nM | 110 nM | 
9 | Cc1cc(CN2C[C@@H](C)[C@H](c3nc4c(cnn4C4CCCC4)c(=O)[nH]3)C2)n(C)n1 (relative stereo) | 11 nM | 200 nM | 
10 | Cc1cccc(CN2C[C@@H](C)[C@H](c3nc4c(cnn4C4CCCC4)c(=O)[nH]3)C2)c1 (relative stereo) | 40 nM | 563 nM | IC50 ([2]; read-out: pIC50 (converted)): 38 nM
11 | COc1ccc(CN2C[C@@H](C)[C@H](c3nc4c(cnn4C4CCCC4)c(=O)[nH]3)C2)cn1 (relative stereo) | 29 nM | 270 nM | 
12 | CC(C)n1ncc2c(=O)[nH]c([C@@H]3CN(Cc4ccccc4)C[C@H]3C)nc21 (relative stereo) |  | 2100 nM | 
13 | C[C@@H]1CN(Cc2cn3ccccc3n2)C[C@H]1c1nc2c(cnn2C2CCCC2)c(=O)[nH]1 (relative stereo) | 12 nM | 220 nM | 
14 | C[C@H]1CN(Cc2ccc3nccnc3c2)C[C@@H]1c1nc2c(cnn2C2CCCC2)c(=O)[nH]1 (relative stereo) | 1.9 nM | 73 nM | 
15 | Cc1cnc(CN2C[C@@H](C)[C@H](c3nc4c(cnn4C4CCCC4)c(=O)[nH]3)C2)cn1 (relative stereo) | 15 nM | 210 nM | 
